From PubChem BioAssay AID248 (DTP/NCI, 2004)
Toxic doses and inconclusive results are not listed. Rule as the data show it: active = T/C of 150% or more; inactive = T/C below 125%.

System: L1210 leukemia ip in BDF1 mice, survival T/C
Assay: NCI In Vivo Anticancer Drug Screen. Data for tumor model L1210 Leukemia (intraperitoneal) in B6D2F1 (BDF1) mice
Conditions: endpoint: mean survival time, higher = longer survival
How it was run: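 Survival endpoint. Drug-treated group vs vehicle group, expressed as T divided by C. Tumor passaged by transplantation.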

[1] = dose: 100.0 mg/kg/injection, schedule: Q04DX002 (ip), vehicle: Klucel (hydroxypropylcellulose) (HPC)
[2] = dose: 200.0 mg/kg/injection, schedule: Q04DX002 (ip), vehicle: Klucel (hydroxypropylcellulose) (HPC)
[3] = dose: 400.0 mg/kg/injection, schedule: Q04DX002 (ip), vehicle: Klucel (hydroxypropylcellulose) (HPC)
[4] = dose: 50.0 mg/kg/injection, schedule: Q04DX003 (ip), vehicle: saline
[5] = dose: 100.0 mg/kg/injection, schedule: Q04DX003 (ip), vehicle: saline
[6] = dose: 200.0 mg/kg/injection, schedule: Q04DX003 (ip), vehicle: saline
[7] = dose: 100.0 mg/kg/injection, schedule: Q01DX001 (ip), vehicle: other
[8] = dose: 100.0 mg/kg/injection, schedule: Q01DX009 (ip), vehicle: saline with Tween-80
[9] = dose: 200.0 mg/kg/injection, schedule: Q01DX001 (ip), vehicle: other
[10] = dose: 200.0 mg/kg/injection, schedule: Q01DX009 (ip), vehicle: saline with Tween-80
[11] = dose: 400.0 mg/kg/injection, schedule: Q01DX001 (ip), vehicle: other
[12] = dose: 400.0 mg/kg/injection, schedule: Q01DX009 (ip), vehicle: saline with Tween-80
[13] = dose: 100.0 mg/kg/injection, schedule: Q01DX009 (ip), vehicle: Klucel (hydroxypropylcellulose) (HPC)
[14] = dose: 100.0 mg/kg/injection, schedule: Q04DX003 (ip), vehicle: Klucel (hydroxypropylcellulose) (HPC)
[15] = dose: 200.0 mg/kg/injection, schedule: Q01DX009 (ip), vehicle: Klucel (hydroxypropylcellulose) (HPC)
[16] = dose: 200.0 mg/kg/injection, schedule: Q04DX003 (ip), vehicle: Klucel (hydroxypropylcellulose) (HPC)
[17] = dose: 400.0 mg/kg/injection, schedule: Q01DX009 (ip), vehicle: Klucel (hydroxypropylcellulose) (HPC)
[18] = dose: 400.0 mg/kg/injection, schedule: Q04DX003 (ip), vehicle: Klucel (hydroxypropylcellulose) (HPC)
[19] = dose: 100.0 mg/kg/injection, schedule: Q01DX001 (ip), vehicle: saline
[20] = dose: 200.0 mg/kg/injection, schedule: Q01DX001 (ip), vehicle: saline
[21] = dose: 400.0 mg/kg/injection, schedule: Q01DX001 (ip), vehicle: saline
[22] = dose: 100.0 mg/kg/injection, schedule: Q04DX003 (ip), vehicle: saline with Tween-80
[23] = dose: 200.0 mg/kg/injection, schedule: Q04DX003 (ip), vehicle: saline with Tween-80
[24] = dose: 400.0 mg/kg/injection, schedule: Q04DX003 (ip), vehicle: saline with Tween-80
[25] = dose: 100.0 mg/kg/injection, schedule: Q01DX001 (ip), vehicle: carboxymethylcellulose (CMC)
[26] = dose: 200.0 mg/kg/injection, schedule: Q01DX001 (ip), vehicle: carboxymethylcellulose (CMC)
[27] = dose: 400.0 mg/kg/injection, schedule: Q01DX001 (ip), vehicle: carboxymethylcellulose (CMC)

Measured: T/C

Cc1nc2c(ncn2C2OC(CO)C(O)C2O)c(=O)[nH]1 (stereo unspecified)
inactive: dose: 100.0 mg/kg/injection, schedule: Q01DX005 (ip), vehicle: saline 103 % of control | dose: 200.0 mg/kg/injection, schedule: Q01DX005 (ip), vehicle: saline 93 % of control

CCCCCCCCCC(O)CCCC(O)C(O)CCCCCCC(=O)O (stereo unspecified)
inactive: [1] 91 % of control | [2] 91 % of control | [3] 91 % of control

CCNNC
inactive: dose: 12.5 mg/kg/injection, schedule: Q04DX003 (ip), vehicle: saline 104 % of control | dose: 25.0 mg/kg/injection, schedule: Q04DX003 (ip), vehicle: saline 103 % of control | [4] 101 % of control | [5] 111 % of control | [6] 108 % of control

COc1cc2ccc(C(N)=O)cc2cc1OC
inactive: [7] 98 % of control | [8] 92 % of control | dose: 100.0 mg/kg/injection, schedule: Q04DX003 (ip), vehicle: other 96 % of control | [9] 102 % of control | [10] 95 % of control | dose: 200.0 mg/kg/injection, schedule: Q04DX003 (ip), vehicle: other 103 % of control | [11] 100 % of control | [12] 98 % of control | dose: 400.0 mg/kg/injection, schedule: Q04DX003 (ip), vehicle: other 103 % of control

CCCCCCCCCCCCCCCCn1/c(=N/N=C/c2ccccc2S(=O)(=O)O)sc2ccccc21
inactive: [13] 106 % of control | [14] 113 % of control | [15] 112 % of control | [16] 106 % of control | [17] 105 % of control | [18] 116 % of control

CCOC(=O)CNC(=O)NCc1ccccc1
inactive: [8] 106 % of control | [10] 102 % of control | [12] 105 % of control

O=C(/C=C\c1ccc(O)c(O)c1)OC1C(O)CC(OC(=O)/C=C/c2ccc(O)c(O)c2)(C(=O)O)CC1O (stereo unspecified)
inactive: dose: 100.0 mg/kg/injection, schedule: Q01DX009 (ip), vehicle: saline 105 % of control | dose: 200.0 mg/kg/injection, schedule: Q01DX009 (ip), vehicle: saline 91 % of control | dose: 400.0 mg/kg/injection, schedule: Q01DX009 (ip), vehicle: saline 94 % of control

O=c1scc(-c2ccccc2)s1
inactive: [1] 113 % of control | [2] 88 % of control | [3] 106 % of control

CC(=O)N/N=C(/C)c1cccs1
inactive: [19] 103 % of control | [20] 109 % of control | [21] 100 % of control

CCCCSCCSC(=N)N
inactive: dose: 25.0 mg/kg/injection, schedule: Q04DX002 (ip), vehicle: saline with Tween-80 100 % of control | dose: 50.0 mg/kg/injection, schedule: Q04DX002 (ip), vehicle: saline with Tween-80 103 % of control | dose: 100.0 mg/kg/injection, schedule: Q04DX002 (ip), vehicle: saline with Tween-80 103 % of control

CC(=O)NCCCc1c(C)nc(N)[nH]c1=O
inactive: dose: 62.5 mg/kg/injection, schedule: Q01DX001 (ip), vehicle: Klucel (hydroxypropylcellulose) (HPC) 102 % of control | dose: 125.0 mg/kg/injection, schedule: Q01DX001 (ip), vehicle: Klucel (hydroxypropylcellulose) (HPC) 102 % of control | dose: 250.0 mg/kg/injection, schedule: Q01DX001 (ip), vehicle: Klucel (hydroxypropylcellulose) (HPC) 102 % of control

Cc1c(Cl)cccc1NC(=O)Oc1ccc(Cl)cc1
inactive: [8] 92 % of control | [22] 93 % of control | [10] 87 % of control | [23] 97 % of control | [12] 87 % of control | [24] 102 % of control

COc1ccc(OCCOC(C)=O)cc1
inactive: [1] 107 % of control | [2] 100 % of control | [3] 103 % of control

Cc1ccc(NC(=O)c2cc3ccccc3cc2O)c(C)c1
inactive: [7] 92 % of control | [14] 100 % of control | [9] 92 % of control | [16] 94 % of control | [11] 92 % of control | [18] 105 % of control

O=C(Nc1ccc(Cl)c([N+](=O)[O-])c1)Nc1nnc(Br)s1
inactive: [13] 104 % of control | [15] 90 % of control | [17] 97 % of control

O=c1ccnc([Se])[nH]1
inactive: dose: 12.5 mg/kg/injection, schedule: Q04DX003 (ip), vehicle: saline with Tween-80 99 % of control | dose: 25.0 mg/kg/injection, schedule: Q04DX003 (ip), vehicle: saline with Tween-80 105 % of control | dose: 50.0 mg/kg/injection, schedule: Q04DX003 (ip), vehicle: saline with Tween-80 101 % of control | [22] 92 % of control | [23] 111 % of control | [24] 101 % of control

O=C(O)c1cccc([N+](=O)[O-])c1[N+](=O)[O-]
inactive: dose: 50.0 mg/kg/injection, schedule: Q04DX003 (ip), vehicle: Klucel (hydroxypropylcellulose) (HPC) 94 % of control | [25] 95 % of control | [14] 92 % of control | [26] 93 % of control | [16] 103 % of control | [27] 93 % of control | [18] 92 % of control

Cc1c(F)c(I)c(Br)c(C)c1[N+](=O)[O-]
inactive: dose: 75.0 mg/kg/injection, schedule: Q04DX003 (ip), vehicle: Klucel (hydroxypropylcellulose) (HPC) 104 % of control | dose: 150.0 mg/kg/injection, schedule: Q04DX003 (ip), vehicle: Klucel (hydroxypropylcellulose) (HPC) 88 % of control | dose: 300.0 mg/kg/injection, schedule: Q04DX003 (ip), vehicle: Klucel (hydroxypropylcellulose) (HPC) 93 % of control

CC(=O)Nc1cc(C(=O)Nc2cccc(C3=NCCN3)c2)ccc1C(=O)Nc1cccc(C2=NCCN2)c1
inactive: dose: 1.3 mg/kg/injection, schedule: Q01DX Z (ip), vehicle: methylcellulose (MC) 96 % of control

O=[N+]([O-])c1ccc(OCc2ccccc2S(=O)(=O)F)c(Cl)c1
inactive: dose: 100.0 mg/kg/injection, schedule: Q04DX003 (ip), vehicle: gum acacia 92 % of control | dose: 200.0 mg/kg/injection, schedule: Q04DX003 (ip), vehicle: gum acacia 93 % of control | dose: 400.0 mg/kg/injection, schedule: Q04DX003 (ip), vehicle: gum acacia 100 % of control

CC(=O)OCc1ccnc2ccc(OC(C)=O)cc12
inactive: [19] 100 % of control | [20] 98 % of control | [21] 96 % of control

Nc1ncnc2c1cnn2C1OC(CO)C(O)C1O (stereo unspecified)
inactive: dose: 4.1 mg/kg/injection, schedule: Q01DX009 (ip), vehicle: carboxymethylcellulose (CMC) 97 % of control | dose: 6.2 mg/kg/injection, schedule: Q01DX009 (ip), vehicle: carboxymethylcellulose (CMC) 111 % of control | dose: 9.3 mg/kg/injection, schedule: Q01DX009 (ip), vehicle: carboxymethylcellulose (CMC) 124 % of control | dose: 67.5 mg/kg/injection, schedule: Q01DX015 (ip), vehicle: carboxymethylcellulose (CMC) 122 % of control | [25] 111 % of control

Cc1ccc(S(=O)(=O)N(C)c2ccc(N(C)S(=O)(=O)c3ccc(C)cc3)cc2)cc1
inactive: [14] 97 % of control | [16] 97 % of control | [18] 97 % of control

[CH3][Pb]([CH3])([CH3])[NH]C#N
inactive: dose: 5.0 mg/kg/injection, schedule: Q04DX003 (ip), vehicle: saline 101 % of control | dose: 10.0 mg/kg/injection, schedule: Q04DX003 (ip), vehicle: saline 86 % of control

Cc1ccc(C(=O)OCC2OC(Cl)CC2OC(=O)c2ccc(C)cc2)cc1 (stereo unspecified)
inactive: [4] 107 % of control | [5] 102 % of control | [6] 91 % of control | dose: 400.0 mg/kg/injection, schedule: Q04DX003 (ip), vehicle: saline 98 % of control

Cc1ccnc(NS(=O)(=O)c2ccc(N=Nc3c(N)[nH]c(=S)[nH]c3=O)cc2)n1
inactive: [25] 97 % of control | [26] 95 % of control | [27] 95 % of control
